One data set addresses T1, M4 receptor (Homo sapiens, UniProt P08173).
T1 construct: expressed in transfected cells
T1 sequence (P08173 1-479): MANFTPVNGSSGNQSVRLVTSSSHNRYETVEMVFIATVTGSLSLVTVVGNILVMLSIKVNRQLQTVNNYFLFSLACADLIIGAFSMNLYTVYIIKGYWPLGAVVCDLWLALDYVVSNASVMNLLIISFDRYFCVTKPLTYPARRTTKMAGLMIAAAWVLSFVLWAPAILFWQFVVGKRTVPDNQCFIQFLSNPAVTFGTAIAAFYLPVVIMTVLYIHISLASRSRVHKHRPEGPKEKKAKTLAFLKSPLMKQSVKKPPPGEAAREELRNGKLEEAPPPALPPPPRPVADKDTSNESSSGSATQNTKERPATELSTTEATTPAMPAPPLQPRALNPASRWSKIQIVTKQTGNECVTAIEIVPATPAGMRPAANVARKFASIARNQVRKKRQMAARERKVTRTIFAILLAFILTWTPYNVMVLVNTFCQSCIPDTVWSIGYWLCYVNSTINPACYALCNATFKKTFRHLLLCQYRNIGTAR
The experiment in a line: Calcium flux (FLIPR) potentiation assay in cells stably expressing M4 receptor. The format is cell-based. An excerpt: Test example 1. Determination of the effect of the compounds of the present invention on calcium current in cells stably expressing M1-M5 receptors
To detect the potentiating effect of compounds on calcium flux activity in CHO-K1/human M1/3/5 and CHO-K1/Gα15 M2/4 cells.
384-well assay plate, 384-well plate, FLIPR Tip, FLIPR Penta plate reader, Dispendix non-contact nanoliter dispensing system (liquid handling workstation), liquid handler.
Ham's F-12 Nutrient Mix, foetal bovine serum, P/S (Gibco: 15140122), HBSS (Gibco: 14025076), HEPES (Gibco: 15630080), FLIPR calcium 6 assay kit (Molecular Devices: R8190), Probenecid (PBA) (Invitrogen: P36400), Acetylcholine chloride (Sigma: A6625-25G) Complete culture medium: DMEM + 10% FBS + 1X P/S; Cell seeding medium: DMEM + 10% FBS + 1X PS; Assay buffer 1: 1X HBSS + 20 mM HEPES +2.5 mM Probenecid; Assay buffer 2: 1X HBSS + 20 mM HEPES; Cell line: CHO-K1/M1; CHO-K1/M2/Gα15; CHO-K1/M3; CHO-K1/M4/Gα15; CHO-K1/M5.
FLIPR calcium 6 assay kit: Component A was dissolved in Assay buffer 1, and the mixture was shaken for 1-2 min, sub-packaged and stored at -20°C.
• 1) CHO-K1/M1; CHO-K1/M2/Gα15; CHO-K1/M3; CHO-K1/M4/Gα15; and CHO-K1/M5 cell lines were cultured separately in complete culture medium at 37°C, 5% CO2 to 70%-90% confluency. • 2) The cells were digested and resuspended in cell seeding medium, 5,000 cells/well/20 µL were seeded into a 384-well cell culture plate, and the cells were cultured at 37°C, 5% CO2 for 24 hours. • 3) The cell culture plate was taken out of the CO2 incubator and equilibrated at room temperature for 10 minutes. • 4) Component A solution was removed and allowed to equilibrate to room temperature. 20 µL of Component A solution was added to each well of the cell culture plate, and incubated at room temperature in the dark for 1 hour. • 5) Acetylcholine chloride (ACh), a muscarinic receptor agonist, was prepared in Assay buffer 2 at EC20/EC100 concentrations; subsequently, 30 µL of the prepared muscarinic receptor agonist was added to a 384-well agonist plate (PE: 6008590) using a Multidrop Combi; the working solutions of the positive control compound and the test compound were serially diluted at a 3.16-fold gradient and dispensed (450 nL) into a 384-well compound plate (PE: 6008590) using the Dispendix liquid handling workstation; 30 µL of Assay buffer 2 was added to the 384-well compound plate (PE: 6008590) using the Multidrop Combi; the positive control compound and the test compound were diluted to 6X, mixed by shaking, and placed at room temperature until use. • 6) 10 µL of the diluted 6X compound was added to the assay wells of the corresponding 384-well cell plate using the FLIPR Penta, followed by a 2-minute incubation. • 7) 10 µL of the prepared muscarinic receptor agonist was added to the assay wells of the corresponding 384-well cell plate using the FLIPR Penta, with simultaneous data acquisition.
FLIPR Penta was used to read and collect the fluorescence signal value (RFU). The maximum RFU value was used to calculate the percent activation data based on the readings of the Low control (DMSO control group) and High control (ACh EC100) experimental groups {% activation rate = (RFUsample - RFUlow control) / (RFUhigh control - RFUlow control)×100}. The test compound was diluted 3.16X in the reaction system to generate 11 concentration points ranging from 30 µM to […].
(Calcium flux is commonly read through the fluorescence of an indicator in the cells.)

Data set [1] in a line: Pharmacokinetic determination in SD rats. The settings on record: rat, in vivo, po, male SD rats, p.o. 5 mg/kg. The procedure: To investigate the pharmacokinetic behaviours of the example compounds in both plasma and brain of SD rats (test animals) following oral administration at a dose of 5 mg/kg.
2.1 Test drugs: The example compounds of the present invention, made in house.
2.2 Test animals: SD Rat, male.
24 SD Rats, male; p.o. respectively at a dose of 5 mg/kg and an administration volume of 10 mL/kg after the rats were fasted overnight.
Formulation of a drug for oral administration: 0.5% CMC-Na (1% Tween 80).
0.50 g of sodium carboxymethyl cellulose (CMC-Na, viscosity: 800-1200 Cps) was weighed and dissolved in 99 mL of purified water, and 1 ml of Tween 80 was added. The components were mixed thoroughly under stirring to form a clear solution.
The example compound was weighed into a 100 mL glass vial, 80 mL of the solution was added, and the mixture was subjected to ultrasound treatment for 10 minutes to obtain a homogeneous suspension with a concentration of 0.5 mg/mL.
After the test animals were euthanised by CO2, blood samples were collected from the heart and brain tissues were harvested at 0.25 h, 0.5 h, 1 h, 2 h, 4 h, 6 h, 8 h, and 24 h post-dose. Blood was placed in EDTA-2K tubes, and centrifuged at 6000 rpm for 6 min at 4°C to separate the plasma. Brain tissues were rinsed with pre-cold PBS, blotted dry, and weighed. Both plasma and brain samples were stored at -80°C. The animals were fed 4 h after administration.
• 3) 40 uL of plasma sample was precipitated with 160 uL of acetonitrile, mixed, and centrifuged at 3500 × g for 5-20 min. Brain tissues were diluted, homogenised and centrifuged. • 4) 100 uL of the treated supernatant solution was taken for LC/MS/MS analysis to determine the concentration of the test compounds.
• Liquid phase conditions: Shimadzu LC-20AD pump • Mass spectrometry conditions: AB Sciex API 4000 mass spectrometer • Chromatographic column: Phenomenex Gemiu 5 um C18 50 × 4.6 mm • Mobile phase: solution A: 0.1% formic acid in water, solution B: acetonitrile • Flow rate: 0.8 mL/min • Elution time: 0-4.0 min, with eluents as follows:
The main pharmacokinetic parameters were calculated using WinNonlin 8.1.

Where [2] appears, read: CHO-K1/M4/Gα15 cells, potentiation of acetylcholine (EC20) calcium flux, read-out: M4 FLIPR EC50.

Read-outs that look alike come from different tables or passages of the source.

As to `Cc1c2c(c3ncnn3c1C)CN(C(=O)CC1CN(c3ccnc(C(F)(F)F)c3)C1)C2` [Example 20, 1-(5,6-Dimethyl-7,9-dihydro-8H-pyrrolo[3,4-c][1,2,4]triazolo[1,5-a]pyridin-8-yl)-2-(1-(2-(trifluoromethyl)pyridin-4-yl)azetidin-3-yl)ethan-1-one], the EC50 (commonly the midpoint of the concentration-response curve) on M4 receptor (setting [2]) was 14.7 nM.

Take `Cc1c2c(c3ncnn3c1C)CN(C(=O)CC1CN(c3ccc(S(=O)(=O)C(F)F)cc3)C1)C2` [Example 25]: the EC50 at M4 receptor (setting [2]) stood at 9.5 nM.

On to `Cc1c2c(c3ncnn3c1C)CN(C(=O)c1ccc(F)c(Cl)c1)C2` [Example 29], for which the EC50 on M4 receptor (setting [2]) stood at 37 nM.

Take `Cc1c2c(c3ncnn3c1C)CN(C(=O)C1CCN(c3ccncn3)C1)C2` (stereo not drawn) [Example 34]: the EC50 on M4 receptor (setting [2]) is 40.4 nM.

As for `CN=S(C)(=O)c1ccc(N2CC(CC(=O)N3Cc4c(C)c(C)n5ncnc5c4C3)C2)cc1` (stereo not drawn) [Example 38], the EC50 on M4 receptor (setting [2]) stood at 37.9 nM.

Take `CCNc1nccc(N2CC(CC(=O)N3Cc4c(C)c(C)n5ncnc5c4C3)C2)n1` [Example 53]: the EC50 at M4 receptor (setting [2]) was found to be 8 nM.

Turning to `Cc1c2c(c3ncnn3c1C)CN(C(=O)CC1CN(c3cc(NC(C)C)ncn3)C1)C2` [Example 54], the EC50 on M4 receptor (setting [2]) was determined as 9.6 nM.

For `Cc1cn2nc(N3CC(CC(=O)N4Cc5c(C)c(C)n6ncnc6c5C4)C3)ccc2n1` [Example 55], the EC50 on M4 receptor worked out at 18.1 nM.

As for `Cc1nc2c3c(c(C)c(C)n2n1)CN(C(=O)CC1CN(c2ccnc(C(F)(F)F)c2)C1)C3` [Example 57], the concentration for a half-maximal effect (EC50) at M4 receptor (setting [2]) was 18 nM.

Turning to `Cc1c2c(c3nccn3c1C)CN(C(=O)CC1CN(c3ccnc(C(F)(F)F)c3)C1)C2` [Example 60, 1-(5,6-Dimethyl-7,9-dihydro-8H-imidazo[1,2-a]pyrrolo[3,4-c]pyridin-8-yl)-2-(1-(2-(trifluoromethyl)pyridin-4-yl)azetidin-3-yl)ethan-1-one], at M4 receptor (setting [2]), the EC50 was determined as 8.8 nM.

Regarding `Cc1c2c(c3ncnn3c1C)CN(C(=O)CC1CN(c3ccnc(S(=O)(=O)N(C)C)c3)C1)C2` [Example 61], the EC50 at M4 receptor (setting [2]) was found to be 10.6 nM.

As for `Cc1c2c(c3nccn3c1C)CN(C(=O)CC1CN(c3ccnc(OC(F)F)c3)C1)C2` [Example 70], the half-maximal effective concentration (EC50) at M4 receptor (setting [2]) stood at 73.6 nM.

`Cc1c2c(c3nccn3c1C)CN(C(=O)OC1CN(c3ccnc(C(F)(F)F)c3)C1)C2` [Example 71]: the EC50 on M4 receptor (setting [2]) stood at 71.9 nM.

Regarding `Cc1c2c(c3nccn3c1C)CN(C(=O)OC1CN(c3ccnc(OC(F)F)c3)C1)C2` [Example 72], at M4 receptor (setting [2]), the EC50 was found to be 87.5 nM.

Regarding `Cc1c2c(c3ncnn3c1C)CN(C(=O)CC1CN(c3ccnc(C4CCCCO4)c3)C1)C2` (stereo not drawn) [Example 100], the EC50 at M4 receptor (setting [2]) worked out at 18.4 nM.

Turning to `Cc1c2c(c3nccn3c1C)CN(C(=O)CC1CN(c3ccnc(C(F)F)c3)C1)C2` [Example 101], the EC50 at M4 receptor (setting [2]) was found to be 33.5 nM.

For the compound `Cc1c2c(c3ncnn3c1C)CN(C(=O)C[C@@H]1C[C@H]1c1ccc(F)nc1)C2` [Example 103, 1-(5,6-Dimethyl-7,9-dihydro-8H-pyrrolo[3,4-c][1,2,4]triazolo[1,5-a]pyridin-8-yl)-2-((1S,2R)-2-(6-fluoropyridin-3-yl)cyclopropyl)ethan-1-one], at M4 receptor (setting [2]), the half-maximal effective concentration (EC50) was 24.4 nM.

On to `Cc1c2c(c3nccn3c1C)CN(C(=O)CC1CC1c1ccc(F)nc1)C2` (stereo not drawn) [Example 104], for which the EC50 on M4 receptor came out at 53.8 nM.

Consider `Cc1cn2nc(N3CC(CC(=O)N4Cc5c(C)c(C)n6nc(C)nc6c5C4)C3)ccc2n1` [Example 127], for which the EC50 on M4 receptor (setting [2]) turned out to be 15.2 nM.

For `Cc1nc2c3c(c(C)c(C)n2n1)CN(C(=O)C1CCN(c2ccncn2)C1)C3` (stereo not drawn) [Example 140], the concentration giving a half-maximal response (EC50) on M4 receptor (setting [2]) came to 51.7 nM.

For `Cc1c2c(c3ccnn3c1C)CN(C(=O)OC1CN(c3ccnc(C(F)F)c3)C1)C2` [Example 142], in data set [1], the total exposure AUC(0-inf) (in general, total exposure, with the tail of the curve extrapolated) came out at 9320 ng·h/mL; the peak level (Cmax) was 1380 ng/mL; the Tmax – broadly, the time at which the peak concentration occurs – was 2 h. Also, the MRT inf in data set [1] (read-out: MRT 0-∞) came out at 4.4 h.

As to `Cc1c2c(c3nc(C4CC4)nn3c1C)CN(C(=O)CC1CN(c3ccnc(C(F)(F)F)c3)C1)C2` [Example 143], the EC50 at M4 receptor (setting [2]) stood at 30.9 nM.

Regarding `Cc1c2c(c3nc(N)nn3c1C)CN(C(=O)CC1CN(c3ccnc(C(F)(F)F)c3)C1)C2` [Example 145], the EC50 at M4 receptor (setting [2]) is 27.4 nM.

As to `Cc1c2c(c3ncnn3c1C)CN(C(=O)CC1CN(c3cc(Cl)ncc3Cl)C1)C2` [Example 146], the EC50 at M4 receptor (setting [2]) was found to be 12.4 nM.

Regarding `Cc1c2c(c3nnnn3c1C)CN(C(=O)CC1CN(c3ccnc(C(F)(F)F)c3)C1)C2` [Example 148], the EC50 on M4 receptor (setting [2]) worked out at 37.7 nM.

`Cc1cn2cc(N3CC(OC(=O)N4Cc5c(C)c(C)n6ncnc6c5C4)C3)ccc2n1` [Example 178]: the EC50 on M4 receptor (setting [2]) turned out to be 83.8 nM.

Take `Cc1c2c(c3nnnn3c1C)CN(C(=O)OC1CN(c3ccnc(OC(F)F)c3)C1)C2` [Example 179]: the EC50 at M4 receptor (setting [2]) worked out at 57.1 nM.

In the case of `Cc1c2c(c3ncnn3c1C)CN(C(=O)OC1CN(c3cc(C(F)(F)F)ncc3Cl)C1)C2` [Example 180], the EC50 on M4 receptor (setting [2]) worked out at 69.5 nM.

For `Cc1c2c(c3nc(N)nn3c1C)CN(C(=O)CC1CN(c3ccnc(OC(F)F)c3)C1)C2` [Example 181], at M4 receptor (setting [2]), the EC50 was 25.9 nM.

In the case of `Cc1c2c(c3ncnn3c1C)CN(C(=O)OC1CN(c3cc(C(F)F)ncc3Cl)C1)C2` [Example 184], the EC50 on M4 receptor (setting [2]) worked out at 44.1 nM.

For the compound `Cc1c2c(c3ncnn3c1C)CN(C(=O)CC1CN(c3ccnc(OCC(F)F)c3)C1)C2` [Example 185], the EC50 at M4 receptor (setting [2]) was 11.1 nM.

Turning to `Cc1c2c(c3ncnn3c1C)CN(C(=O)CC1CN(c3ccnc(OCC(F)(F)F)c3)C1)C2` [Example 186], the EC50 on M4 receptor (setting [2]) was found to be 28.8 nM.

In the case of `Cc1c2c(c3ncnn3c1C)CN(C(=O)OC1CN(c3cc(Cl)ncc3Cl)C1)C2` [Example 187], the EC50 on M4 receptor is 28.2 nM.

These data come from patent publication EP4810493A1, “HETEROCYCLIC CARBONYL DERIVATIVE MODULATOR, PREPARATION METHOD THEREFOR, AND USE THEREOF” (Shanghai Hansoh Biomedical Co., Ltd., priority 2023, dated 2025).
